Values quoted from earlier work, collected in US8163312B2, “Herbal formulation for prevention and treatment of diabetes and associated complications” (Innoveda Biological Solutions (P) Ltd., priority 2008, dated 2012).

Legend:
[1] = biological target: T1, PPAR-alpha (Homo sapiens, UniProt Q07869); conditions: selective PPAR-alpha antagonist added
T1 construct: host or cells: human embryonic kidney 293 cells
T1 sequence (Q07869 1-468): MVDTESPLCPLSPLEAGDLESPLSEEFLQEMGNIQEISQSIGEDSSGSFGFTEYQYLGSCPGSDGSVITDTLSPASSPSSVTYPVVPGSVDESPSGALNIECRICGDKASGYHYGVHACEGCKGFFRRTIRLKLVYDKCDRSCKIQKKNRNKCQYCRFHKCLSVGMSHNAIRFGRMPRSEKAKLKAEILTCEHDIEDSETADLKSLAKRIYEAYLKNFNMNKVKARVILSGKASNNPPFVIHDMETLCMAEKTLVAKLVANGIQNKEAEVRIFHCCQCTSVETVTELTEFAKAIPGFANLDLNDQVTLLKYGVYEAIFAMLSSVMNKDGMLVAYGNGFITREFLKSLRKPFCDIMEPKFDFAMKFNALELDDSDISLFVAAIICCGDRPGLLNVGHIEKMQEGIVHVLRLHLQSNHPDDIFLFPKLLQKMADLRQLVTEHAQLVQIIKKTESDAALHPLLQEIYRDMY

[2] = tested on: mice; conditions: sanjoinine-A given as one unit
[3] = tested on: alloxan induced diabetic rats

Compound	relative sedative potency [2]	other results
CC(C)c1ccc2c(c1)c(SC(C)(C)C)c(CC(C)(C)C(=O)O)n2Cc1ccc(Cl)cc1 [MK-886]	–	effects of SO extract and mangiferin on PPAR-alpha luciferase and lipoprotein lipase [1]: completely suppressed
sanjoinine-Ahl	3	–
CN(C)CCCN1c2ccccc2Sc2ccc(Cl)cc21 [chlorpromazine]	5	–
CC(C)C[C@@H]1NC(=O)[C@@H](NC(=O)[C@H](Cc2ccccc2)N(C)C)[C@H](C(C)C)Oc2ccc(cc2)/C=C\NC1=O [sanjoinine-A]	one	–
COc1cc2ccnc3c2c(c1OC)-c1ccccc1C3=O [lysicamine]	6.5	–
COc1cc(/C=C/C(=O)CC(=O)/C=C/c2ccc(O)c(OC)c2)ccc1O [curcumin]	–	activity of SDH (sorbitol dehydrogenase) [3]: lowered significantly; blood sugar, Hb and glycosylated hemoglobin levels [3]: reduced; oxidative stress (levels of TBRAS) [3]: reduced the oxidative stress
